In article PMC3911823 (The FEBS journal, 2011):
Positions count from the first letter of the chain named.

Tests used:
Format in all cases: biochemical, rabbit (Oryctolagus cuniculus)
P450 2B4 H172A = target: T1, P450 2B4 H172A (Oryctolagus cuniculus, UniProt P00178, H172A); test: Inhibition of 7-EFC O-deethylation by imidazole inhibitors
T1 sequence (P00178 with tags, fused parts or gaps H172A limits assumed): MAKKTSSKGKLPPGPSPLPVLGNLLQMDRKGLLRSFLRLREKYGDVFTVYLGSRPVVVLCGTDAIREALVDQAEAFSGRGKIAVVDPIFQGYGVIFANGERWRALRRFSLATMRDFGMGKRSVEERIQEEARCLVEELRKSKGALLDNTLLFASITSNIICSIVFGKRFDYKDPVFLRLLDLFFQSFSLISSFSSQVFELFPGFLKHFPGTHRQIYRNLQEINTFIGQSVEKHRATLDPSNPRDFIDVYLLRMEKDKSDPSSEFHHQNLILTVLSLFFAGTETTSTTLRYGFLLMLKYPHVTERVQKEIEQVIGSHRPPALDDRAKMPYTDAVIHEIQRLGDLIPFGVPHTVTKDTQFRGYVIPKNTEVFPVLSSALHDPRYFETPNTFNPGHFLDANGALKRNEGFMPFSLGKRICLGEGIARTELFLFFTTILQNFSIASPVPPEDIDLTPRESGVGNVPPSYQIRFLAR

P450 2B4 L437A = target: T2, P450 2B4 L437A (Oryctolagus cuniculus, UniProt P00178, L437A); test: as above
T2 sequence (P00178 with tags, fused parts or gaps L437A limits assumed): T1 sequence (P00178 with tags, fused parts or gaps H172A limits assumed) with A153H, L418A

P450 2B4 E474Q [1] = target: T3, P450 2B4 E474Q (Oryctolagus cuniculus, UniProt P00178, E474Q); test: as above
T3 sequence (P00178 with tags, fused parts or gaps E474Q limits assumed): T1 sequence (P00178 with tags, fused parts or gaps H172A limits assumed) with A153H, E455Q

P450 2B4 wild type = target: T4, P450 2B4 wild type (Oryctolagus cuniculus, UniProt P00178); conditions: 2B4 WT
T4 sequence (P00178 with tags, fused parts or gaps limits assumed): T1 sequence (P00178 with tags, fused parts or gaps H172A limits assumed) with A153H

P450 2B4 E474D = target: T5, P450 2B4 E474D (Oryctolagus cuniculus, UniProt P00178, E474D)
T5 sequence (P00178 with tags, fused parts or gaps E474D limits assumed): T1 sequence (P00178 with tags, fused parts or gaps H172A limits assumed) with A153H, E455D

P450 2B4 E474Q [2] = target: T3, P450 2B4 E474Q

Clc1ccc(-c2c[nH]cn2)cc1 [4-CPI, 4-(4-chlorophenyl)imidazole]
IC50 (P450 2B4 H172A): 310 nM | Ratio 4-CPI IC50/Bifonazole IC50 (P450 2B4 H172A; 2B4 H172A, 50 μM 7-EFC as substrate): 0.53 | IC50 (P450 2B4 L437A): 970 nM | Ratio 4-CPI IC50/Bifonazole IC50 (P450 2B4 L437A; 2B4 L437A, 50 μM 7-EFC as substrate): 3.88 | IC50 (P450 2B4 E474Q [1]): 500 nM | Ratio 4-CPI IC50/Bifonazole IC50 (P450 2B4 E474Q [1]; 2B4 E474Q, 50 μM 7-EFC as substrate): 0.62

O=c1ccc2nc3ccc(OCc4ccccc4)cc3oc-2c1 [7-BR, 7-benzyloxyresorufin]
kcat/S50 (P450 2B4 wild type): 3.3 | S50 (P450 2B4 wild type; Hill equation): 2.3 ± 0.5 µM | kcat (P450 2B4 wild type; substrate O-dealkylation): 0.127 ± 0.005 s⁻¹ | decrease (change) in kcat versus wild type (P450 2B4 E474D): ~ 2.5 fold | kcat (P450 2B4 E474D): 0.0517 ± 0.0033 s⁻¹ | kcat/S50 (P450 2B4 E474D): 0.5 | S50 (P450 2B4 E474D; Hill equation): 6.2 ± 0.7 µM | decrease (change) in kcat versus wild type (P450 2B4 E474Q [2]): ~ 4.5 fold | kcat (P450 2B4 E474Q [2]): 0.0283 ± 0.005 s⁻¹ | kcat/S50 (P450 2B4 E474Q [2]): 0.35 | S50 (P450 2B4 E474Q [2]; Hill equation): 4.8 ± 0.5 µM
